Laboratory results taken from US20170189504A1, “NOVEL PEPTIDES AND COMBINATION OF PEPTIDES FOR USE IN IMMUNOTHERAPY AGAINST VARIOUS CANCERS” (immatics biotechnologies GmbH, priority 2015, published 2017).

What was measured:
[1] = test system: HLA-A*24; experiment: MHC binding assay, UV-ligand exchange with β2m ELISA, HLA-A*24 (Table 21); design: species or system human; conditions: binding to HLA-A*24 ranged by peptide exchange yield (UV-ligand exchange, β2m ELISA)
Source text: (§1) Candidate peptides for T cell based therapies according to the present invention were further tested for their MHC binding capacity (affinity). The individual peptide-MHC complexes were produced by UV-ligand exchange, where a UV-sensitive peptide is cleaved upon UV-irradiation, and exchanged with the peptide of interest as analyzed. Only peptide candidates that can effectively bind and stabilize the peptide-receptive MHC molecules prevent dissociation of the MHC complexes. To determine the yield of the exchange reaction, an ELISA was performed based on the detection of the light chain ((β2m) of stabilized MHC complexes. The assay was performed as generally described in Rodenko et al. (Rodenko et al., 2006).
(§2) 96 well MAXISorp plates (NUNC) were coated over night with 2 ug/ml streptavidin in PBS at room temperature, washed 4× and blocked for 1 h at 37° C. in 2% BSA containing blocking buffer. Refolded HLA-A*02:01/MLA-001 monomers served as standards, covering the range of 15-500 ng/ml. Peptide-MHC monomers of the UV-exchange reaction were diluted 100 fold in blocking buffer. Samples were incubated for 1 h at 37° C., washed four times, incubated with 2 ug/ml HRP conjugated anti-β2m for 1 h at 37° C., washed again and detected with TMB solution that is stopped with […]. Absorption was measured at 450 nm. Candidate peptides that show a high exchange yield (preferably higher than 50%, most preferred higher than 75%) are generally preferred for a generation and production of antibodies or fragments thereof, and/or T cell receptors or fragments thereof, as they show sufficient avidity to the MHC molecules and prevent dissociation of the MHC complexes.

[2] = test system: HLA-A*02; experiment: MHC binding assay, UV-ligand exchange with β2m ELISA, HLA-A*02 (Table 20); design: species or system human; conditions: binding to HLA-A*02 ranged by peptide exchange yield (UV-ligand exchange, β2m ELISA)
Source text: as §1, §2

Row | Substance | Peptide exchange [1] | Peptide exchange [2]
1 | 164 (KFSSFSLFF; listed as Homo sapiens) [compound 164] | +++ (50%-75% = +++) | –
2 | 172 (TYTTVPRVAF; listed as Homo sapiens) [compound 172] | ++++ (≧75% = ++++) | –
3 | 175 (YYEVHKELF; listed as Homo sapiens) [compound 175] | ++++ (≧75% = ++++) | –
4 | 177 (VYPWLGALL; listed as Homo sapiens) [compound 177] | ++++ (≧75% = ++++) | –
5 | 179 (MYDSYWRQF; listed as Homo sapiens) [compound 179] | ++++ (≧75% = ++++) | –
6 | 180 (IYDDSFIRPVTF; listed as Homo sapiens) [compound 180] | +++ (50%-75% = +++) | –
7 | 181 (LYLDIINLF; listed as Homo sapiens) [compound 181] | ++++ (≧75% = ++++) | –
8 | 182 (IYQLDTASI; listed as Homo sapiens) [compound 182] | +++ (50%-75% = +++) | –
9 | 183 (VFTSTARAF; listed as Homo sapiens) [compound 183] | +++ (50%-75% = +++) | –
10 | 184 (VFQNFPLLF; listed as Homo sapiens) [compound 184] | ++++ (≧75% = ++++) | –
11 | 186 (IFPQFLYQF; listed as Homo sapiens) [compound 186] | ++++ (≧75% = ++++) | –
12 | 187 (TYLRDQHFL; listed as Homo sapiens) [compound 187] | ++++ (≧75% = ++++) | –
13 | 188 (RYFKGLVF; listed as Homo sapiens) [compound 188] | +++ (50%-75% = +++) | –
14 | 189 (WYVNGVNYF; listed as Homo sapiens) [compound 189] | ++ (20%-49% = ++) | –
15 | 190 (GFFIFNERF; listed as Homo sapiens) [compound 190] | +++ (50%-75% = +++) | –
16 | 191 (VFKASKITF; listed as Homo sapiens) [compound 191] | +++ (50%-75% = +++) | –
17 | 194 (EFGSLHLEFL; listed as Homo sapiens) [compound 194] | + (<20% = +) | –
18 | 195 (TYSVSFPMF; listed as Homo sapiens) [compound 195] | ++++ (≧75% = ++++) | –
19 | 201 (IYATEAHVF; listed as Homo sapiens) [compound 201] | +++ (50%-75% = +++) | –
20 | 202 (VYWDSAGAAHF; listed as Homo sapiens) [compound 202] | ++++ (≧75% = ++++) | –
21 | 203 (FYSRLLQKF; listed as Homo sapiens) [compound 203] | +++ (50%-75% = +++) | –
22 | 205 (VHIPEVYLI; listed as Homo sapiens) [compound 205] | +++ (50%-75% = +++) | –
23 | 206 (EYQENFLSF; listed as Homo sapiens) [compound 206] | +++ (50%-75% = +++) | –
24 | 208 (TYTQDFNKF; listed as Homo sapiens) [compound 208] | +++ (50%-75% = +++) | –
25 | 209 (TYKDEGNDYF; listed as Homo sapiens) [compound 209] | +++ (50%-75% = +++) | –

Row | Substance | Peptide exchange [1] | Peptide exchange [2]
26 | 210 (IYTMIYRNL; listed as Homo sapiens) [compound 210] | ++++ (≧75% = ++++) | –
27 | 211 (YYLEVGKTLI; listed as Homo sapiens) [compound 211] | ++++ (≧75% = ++++) | –
28 | 215 (YFDKVVTL; listed as Homo sapiens) [compound 215] | ++ (20%-49% = ++) | –
29 | 216 (QYSSVFKSL; listed as Homo sapiens) [compound 216] | ++++ (≧75% = ++++) | –
30 | 217 (FFPPTRQMGLLF; listed as Homo sapiens) [compound 217] | ++++ (≧75% = ++++) | –
31 | 219 (EYPLVINTL; listed as Homo sapiens) [compound 219] | +++ (50%-75% = +++) | –
32 | 221 (RYSTGLAGNLL; listed as Homo sapiens) [compound 221] | +++ (50%-75% = +++) | –
33 | 223 (KYIPYKYVI; listed as Homo sapiens) [compound 223] | +++ (50%-75% = +++) | –
34 | 225 (YYVYIMNHL; listed as Homo sapiens) [compound 225] | +++ (50%-75% = +++) | –
35 | 226 (VYRDETGELF; listed as Homo sapiens) [compound 226] | +++ (50%-75% = +++) | –
36 | 227 (IFLDYEAGTLSF; listed as Homo sapiens) [compound 227] | ++++ (≧75% = ++++) | –
37 | 228 (KYTSWYVAL; listed as Homo sapiens) [compound 228] | ++++ (≧75% = ++++) | –
38 | 252 (RLMEICESL; listed as Homo sapiens) [compound 252] | – | +++ (50%-75% = +++)
39 | 253 (ALAELIDNSL; listed as Homo sapiens) [compound 253] | – | +++ (50%-75% = +++)
40 | 254 (KLQGKLPEL; listed as Homo sapiens) [compound 254] | – | ++ (20%-49% = ++)
41 | 255 (SLLHFTENL; listed as Homo sapiens) [compound 255] | – | +++ (50%-75% = +++)
42 | 256 (SLGEEQFSV; listed as Homo sapiens) [compound 256] | – | ++ (20%-49% = ++)
43 | 257 (GLYTDPCGV; listed as Homo sapiens) [compound 257] | – | ++++ (≧75% = ++++)
44 | 261 (QLQDRVYAL; listed as Homo sapiens) [compound 261] | – | +++ (50%-75% = +++)
45 | 262 (FMVDKAIYL; listed as Homo sapiens) [compound 262] | – | +++ (50%-75% = +++)
46 | 264 (KLFPQETLFL; listed as Homo sapiens) [compound 264] | – | +++ (50%-75% = +++)
47 | 271 (LYHDIFSRL; listed as Homo sapiens) [compound 271] | ++++ (≧75% = ++++) | –
48 | 272 (QYLQDAYSF; listed as Homo sapiens) [compound 272] | ++++ (≧75% = ++++) | –
49 | 274 (AYLHSHALI; listed as Homo sapiens) [compound 274] | ++++ (≧75% = ++++) | –
50 | 275 (EYINQGDLHEF; listed as Homo sapiens) [compound 275] | +++ (50%-75% = +++) | –

The next lines start with the values.

Row | Peptide exchange [1] | Peptide exchange [2] | Substance
51 | ++ (20%-49% = ++) | – | 170 (VYEDQVGKF; listed as Homo sapiens) [compound 170]
52 | +++ (50%-75% = +++) | – | 171 (LFIPSSKLLFL; listed as Homo sapiens) [compound 171]
53 | +++ (50%-75% = +++) | – | 174 (VYVGGGQIIHL; listed as Homo sapiens) [compound 174]
54 | +++ (50%-75% = +++) | – | 178 (IFIEVFSHF; listed as Homo sapiens) [compound 178]
55 | +++ (50%-75% = +++) | – | 185 (IYKVGAPTI; listed as Homo sapiens) [compound 185]
56 | ++++ (≧75% = ++++) | – | 192 (SYALLTYMI; listed as Homo sapiens) [compound 192]
57 | ++++ (≧75% = ++++) | – | 193 (RFHPTPLLL; listed as Homo sapiens) [compound 193]
58 | +++ (50%-75% = +++) | – | 198 (LYLDKATLI; listed as Homo sapiens) [compound 198]
59 | +++ (50%-75% = +++) | – | 214 (LYLKLWNLI; listed as Homo sapiens) [compound 214]
60 | +++ (50%-75% = +++) | – | 224 (QYLENLEKL; listed as Homo sapiens) [compound 224]
61 | – | ++++ (≧75% = ++++) | 258 (LLSERFINV; listed as Homo sapiens) [compound 258]
62 | – | +++ (50%-75% = +++) | 259 (ILLPRIIEA; listed as Homo sapiens) [compound 259]
63 | – | +++ (50%-75% = +++) | 260 (ILLEKILSL; listed as Homo sapiens) [compound 260]
64 | – | ++ (20%-49% = ++) | 263 (VLLSEQGDVKL; listed as Homo sapiens) [compound 263]
65 | – | +++ (50%-75% = +++) | 265 (NTCPYVHNI; listed as Homo sapiens) [compound 265]
66 | – | +++ (50%-75% = +++) | 266 (YAIGLVMRL; listed as Homo sapiens) [compound 266]
67 | ++++ (≧75% = ++++) | – | 267 (KYMVYPQTF; listed as Homo sapiens) [compound 267]
68 | +++ (50%-75% = +++) | – | 270 (NYYEVHKELF; listed as Homo sapiens) [compound 270]
69 | +++ (50%-75% = +++) | – | 273 (TYIKPISKL; listed as Homo sapiens) [compound 273]
70 | ++++ (≧75% = ++++) | – | 276 (VYGFQWRHF; listed as Homo sapiens) [compound 276]
71 | ++++ (≧75% = ++++) | – | 277 (VYQGHTALL; listed as Homo sapiens) [compound 277]
